For the experiment, the target named is T1, human somatostatin receptor subtype 5 (Homo sapiens, UniProt P35346).
T1 construct: expressed in transfected cells
T1 sequence (P35346 whole entry): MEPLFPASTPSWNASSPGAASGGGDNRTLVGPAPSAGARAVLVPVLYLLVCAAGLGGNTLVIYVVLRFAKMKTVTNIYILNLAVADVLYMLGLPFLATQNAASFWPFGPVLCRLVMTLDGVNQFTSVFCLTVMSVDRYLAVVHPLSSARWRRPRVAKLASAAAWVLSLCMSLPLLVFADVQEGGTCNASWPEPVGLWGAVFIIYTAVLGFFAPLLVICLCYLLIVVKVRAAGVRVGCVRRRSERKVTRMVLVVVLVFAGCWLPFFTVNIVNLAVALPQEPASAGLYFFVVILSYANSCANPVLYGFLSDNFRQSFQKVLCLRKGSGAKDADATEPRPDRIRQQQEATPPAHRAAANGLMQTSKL
Description: cAMP assay for SST5R (inhibition of cAMP in CHO-K1 cells). The experiment is classed as cell-based. Conditions: Table A; inhibition of cAMP via human SST5 receptor; read-out: SST5 potency. Summed up:
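CHO-K1 cells stably expressing human SSTR5 were treated 20 min at 37 °C with compounds plus 1.6 μM NKH477 in HBSS, 0.5 mM HEPES pH 7.4, 0.1% BSA, 0.2 mM IBMX. Lysate cAMP measured by HTRF against a standard curve; EC50 from cAMP-versus-concentration plots.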
On the technique in general: cAMP levels reflect the balance of adenylyl cyclase and phosphodiesterase activity.
Regarding `Cc1cccc2[nH]c(-c3cncc(C(=O)NC4CCC(F)(F)CC4)c3N3CC[C@](C)(N)C3)nc12` [2-17, 4-[(3S)-3-amino-3-methylpyrrolidin-1-yl]-N-(4,4-difluorocyclohexyl)-5-(4-methyl-1H-1,3-benzodiazol-2-yl)pyridine-3-carboxamide], the EC50 fell in the range of 10 to 100 nM. In the case of `Cc1cccc2[nH]c(-c3cncc(C(=O)N[C@H](C)C(F)(F)F)c3N3CC[C@](C)(N)C3)nc12` [2-18, 4-[(3S)-3-amino-3-methylpyrrolidin-1-yl]-5-(4-methyl-1H-1,3-benzodiazol-2-yl)-N-[(2R)-1,1,1-trifluoropropan-2-yl]pyridine-3-carboxamide], the EC50 is below 10 nM. The value for `Cc1cccc2[nH]c(-c3cncc(C(=O)N4CCC(C)(C)C4)c3N3CC[C@](C)(N)C3)nc12` [2-19, (3S)-1-[3-(3,3-dimethylpyrrolidine-1-carbonyl)-5-(4-methyl-1H-1,3-benzodiazol-2-yl)pyridin-4-yl]-3-methylpyrrolidin-3-amine] was below 10 nM; that for `Cc1cccc2[nH]c(-c3cncc(C(=O)N4CCCC4(C)C)c3N3CC[C@](C)(N)C3)nc12` [2-20, (3S)-1-[3-(2,2-dimethylpyrrolidine-1-carbonyl)-5-(4-methyl-1H-1,3-benzodiazol-2-yl)pyridin-4-yl]-3-methylpyrrolidin-3-amine] was below 10 nM. Turning to `Cc1cccc2[nH]c(-c3cncc(C(=O)N4CC(C)(C)C4)c3N3CC[C@](C)(N)C3)nc12` [2-21, (3S)-1-[3-(3,3-dimethylazetidine-1-carbonyl)-5-(4-methyl-1H-1,3-benzodiazol-2-yl)pyridin-4-yl]-3-methylpyrrolidin-3-amine], the EC50 is 10 to 100 nM.

For the compound `Cc1cccc2[nH]c(-c3cncc(C(=O)N(C)C4CC4)c3N3CC[C@](C)(N)C3)nc12` [2-22, 4-[(3S)-3-amino-3-methylpyrrolidin-1-yl]-N-cyclopropyl-N-methyl-5-(4-methyl-1H-1,3-benzodiazol-2-yl)pyridine-3-carboxamide], the EC50 lay within 10 to 100 nM. The same measure for `Cc1cccc2[nH]c(-c3cncc(C(=O)N(C)CC4CC4)c3N3CC[C@](C)(N)C3)nc12` [2-23, 4-[(3S)-3-amino-3-methylpyrrolidin-1-yl]-N-(cyclopropylmethyl)-N-methyl-5-(4-methyl-1H-1,3-benzodiazol-2-yl)pyridine-3-carboxamide]: 10 to 100 nM; for `C[C@H](NC(=O)c1cncc(-c2nc3c(F)cccc3[nH]2)c1N1CC[C@](C)(N)C1)C(F)(F)F` [2-24, 4-[(3S)-3-amino-3-methylpyrrolidin-1-yl]-5-(4-fluoro-1H-1,3-benzodiazol-2-yl)-N-[(2S)-1,1,1-trifluoropropan-2-yl]pyridine-3-carboxamide]: below 10 nM; for `Cc1cccc2[nH]c(-c3cncc(C(=O)N4CCC(F)(F)C4)c3N3CC[C@](C)(N)C3)nc12` [2-25, (3S)-1-[3-(3,3-difluoropyrrolidine-1-carbonyl)-5-(4-methyl-1H-1,3-benzodiazol-2-yl)pyridin-4-yl]-3-methylpyrrolidin-3-amine]: 10 to 100 nM.

For the compound `Cc1cccc2[nH]c(-c3cncc(C(=O)N4CCC(C(C)(C)C)C4)c3N3CC[C@](C)(N)C3)nc12` (stereo partly drawn) [2-27, (3S)-1-[3-(3-tert-butylpyrrolidine-1-carbonyl)-5-(4-methyl-1H-1,3-benzodiazol-2-yl)pyridin-4-yl]-3-methylpyrrolidin-3-amine], the EC50 was below 10 nM.

On to `Cc1cccc2[nH]c(-c3cncc(C(=O)N4C[C@@H](C)O[C@@H](C)C4)c3N3CC[C@](C)(N)C3)nc12` [2-28, (3S)-1-{3-[(2R,6S)-2,6-dimethylmorpholine-4-carbonyl]-5-(4-methyl-1H-1,3-benzodiazol-2-yl)pyridin-4-yl}-3-methylpyrrolidin-3-amine], for which the EC50 was 10 to 100 nM. The same measure for `Cc1cccc2[nH]c(-c3cncc(C(=O)NCC4CCC4)c3N3CC[C@](C)(N)C3)nc12` [2-31, 4-[(3S)-3-amino-3-methylpyrrolidin-1-yl]-N-(cyclobutylmethyl)-5-(4-methyl-1H-1,3-benzodiazol-2-yl)pyridine-3-carboxamide]: below 10 nM.

These data come from patent US12600709B2, “Nonpeptide somatostatin type 5 receptor agonists and uses thereof” (Crinetics Pharmaceuticals, Inc., priority 2019, dated 2026).
